Data: US9352013B2, “Uses of bremelanotide in therapy for female sexual dysfunction” (Palatin Technologies, Inc., priority 2012, dated 2016)
Entries after “also recorded” stand apart in the source; their conditions may differ.

What was measured:
[1] = system: healthy adult female subjects; assay: Phase 1 dose escalation, subcutaneous: vaginal photoplethysmography (vaginal pulse amplitude); format: in vivo, human
Procedure: In a double-blind, placebo-controlled, single dose, dose escalation Phase 1 study to determine the maximum tolerated dose in healthy adult female subjects, doses of from 0.3 to 5.0 mg (0.3, 1.0, 3.0 and 5.0 mg) of bremelanotide were administered by subcutaneous injection. However, this study specifically excluded women with a diagnosis of FSD, and thus could not determine an effective dose for treatment of FSD. The study did employ a measure of pharmacodynamic effect, defined as an increase of sexual arousal response in the presence of visual sexual stimulation as measured by vaginal blood flow with vaginal photoplethysmography (using a Geer gauge device), which measures vaginal pulse amplitude.

[2] = Adverse events with single-dose SC administration (Trials-14, -06, -10); format: in vivo, human
Procedure: Subcutaneous dosing was tested in 5 Phase 1 trials (3 in females, 2 in males) and one Phase 2 trial (males). The most common adverse events associated with single-dose SC bremelanotide administration (Trials-14, -06, and -10) were somnolence (30%), flushing (15%), nausea (19%), and vomiting (10%).

[3] = Example 1: adverse events and discontinuations; format: in vivo, human; settings: for Adverse event leading to withdrawal: Flushing, subjects (%) / Adverse event leading to withdrawal: Hypertension, subjects (%) / Adverse event leading to withdrawal: Nausea, subjects (%) / Adverse event leading to withdrawal: Vomiting, subjects (%) / Adverse event: Any leading to withdrawal, subjects (%) / Adverse event: Any, subjects (%) / Adverse event: Flushing, subjects (%) / Adverse event: Headache, subjects (%) / Adverse event: Injection-site pain, subjects (%) / Adverse event: Injection-site pruritus, subjects (%) / Adverse event: Nausea, subjects (%) / Adverse event: Upper respiratory tract infection, subjects (%): double-blind treatment
Procedure: (§1) A multi-centered, placebo-controlled, randomized, parallel group trial with fixed dose levels and designed to identify appropriate doses of bremelanotide administered by subcutaneous injection in premenopausal females with FSAD and/or HSDD, under the conditions of home use, was conducted. Subjects received a single dose of placebo (subject-blinded) in-clinic followed by 4 weeks of subject-blinded placebo treatment at home (subjects self-administered treatment as needed). Subjects who continued to qualify for the trial then received 2 single in-clinic doses of randomized treatment (double-blind; approximately one week apart), followed by 12 weeks of double-blind treatment at home (subjects self-administered treatment as needed).
Bremelanotide was well-tolerated during the trial. The most common types of treatment-emergent adverse events reported more frequently in the bremelanotide arms were facial flushing, nausea, emesis and headache. The study dosed 395 patients. A total of 26 patients discontinued from the study based on preset blood pressure change criterion spread across all arms (N=26, Placebo: 6, bremelanotide arms—0.75 mg: 4, 1.25 mg: 9, 1.75 mg: 7). A total of 19 patients discontinued from the study based on adverse events spread across all arms (N=19, Placebo: 5, bremelanotide arms—0.75 mg: 2, 1.25 mg: 4, 1.75 mg: 8). The adverse events that most commonly lead to discontinuation (other than meeting the blood pressure criterion) were flushing, nausea and emesis. Based on a safety review by an independent Data Safety Monitoring Board, no significant safety issues or concerns were identified during the study. […] Adverse events during the double-blind treatment period are shown on Table 6 below.

female rats = settings: cited from earlier work
[4] = system: premenopausal females with FSAD and/or HSDD; assay: Example 1: placebo-controlled at-home trial of subcutaneous bremelanotide, efficacy (SSEs, FSFI, FSDS-DAO); format: in vivo, human
Procedure: as §1
Subjects were randomized (1:1:1:1) to one of four study treatment groups (placebo or doses with 0.75, 1.25, or 1.75 mg net weight bremelanotide). Randomization occurred immediately prior to the first in-clinic dose of double-blind treatment. Study drug and placebo was provided as pre-filled syringes in 0.3 mL volume, with subjects instructed on self-administration into the anterior thigh or abdomen.
Enrolled subjects were premenopausal women who met the diagnostic criteria for FSAD, HSDD, or mixed FSAD/HSDD, utilizing a diagnostic screening guide including categorization of the sexual dysfunction as both acquired (vs. lifelong) and generalized (vs. situational). Subjects enrolled had previously been sexually “functional;” that is, experienced sexual arousal during sexual activity and/or a normal level of desire at some point in the past for a period of at least 2 years.
Enrolled subjects were provided with an electronic diary system (eDiary) with instructions to complete an FSEP-R questionnaire with each sexual encounter. At selected in-clinic visits, subjects completed other assessment questionnaires, including SIDI-F, FSDS-DAO, FSFI, GAQ and WITS-9. In addition, various vital sign measures were conducted and blood and urine samples collected at selected in-clinic visits.
The measurement period was defined as the number of events during the last four weeks of treatment minus the number of events during the baseline period, with outcomes reported for pooled results of women taking the two highest bremelanotide dose levels versus placebo.
The FSFI is a 19-item questionnaire which provides for an additional measurement of changes over a longer recall period. • FSFI total score improvement (mean change of 3.55 vs. 1.88, p=0.0017) • Reduced associated distress related to sexual dysfunction, as measured by the Female Sexual Distress Scale-DAO (FSDS-DAO). The FSDS-DAO 15-item questionnaire is designed to assess and quantify the change in personal distress associated with FSD. • FSDS-DAO total score improvement (mean change of −11.1 vs. −6.8, p=0.036).

CCCC[C@H](NC(C)=O)C(=O)N[C@H]1CC(=O)NCCCC[C@@H](C(=O)O)NC(=O)[C@H](Cc2c[nH]c3ccccc23)NC(=O)[C@H](CCCNC(=N)N)NC(=O)[C@@H](Cc2ccccc2)NC(=O)[C@H](Cc2c[nH]cn2)NC1=O [bremelanotide, Ac-Nle-cyclo(-Asp-His-D-Phe-Arg-Trp-Lys)-OH]
Pharmacodynamic effect (vaginal pulse amplitude with visual sexual stimulation) ([1]; 0.3 or 1.0 mg SC, compared to placebo or baseline): no apparent pharmacodynamic effect | Pharmacodynamic effect (vaginal pulse amplitude with visual sexual stimulation) ([1]; 3 and 5 mg SC): statistically significant pharmacodynamic effect | Subcutaneous dose at which a pharmacodynamics effect was seen ([1]; normal female volunteers): ≥ 3 mg | Adverse event: flushing [2]: 15% | Adverse event: nausea [2]: 19% | Adverse event: somnolence [2]: 30% | Adverse event: vomiting [2]: 10% | Patients discontinued based on adverse events ([3]; 0.75 mg SC): 2 | Patients discontinued on preset blood pressure change criterion ([3]; 0.75 mg SC): 4 | Adverse event leading to withdrawal: Flushing, subjects (%) ([3]; 0.75 mg SC (N = 100)): 0 | Adverse event leading to withdrawal: Hypertension, subjects (%) ([3]; 0.75 mg SC (N = 100)): 2 (2%) | Adverse event leading to withdrawal: Nausea, subjects (%) ([3]; 0.75 mg SC (N = 100)): 0 | Adverse event leading to withdrawal: Vomiting, subjects (%) ([3]; 0.75 mg SC (N = 100)): 0 | Adverse event: Any leading to withdrawal, subjects (%) ([3]; 0.75 mg SC (N = 100)): 2 (2%) | Adverse event: Any, subjects (%) ([3]; 0.75 mg SC (N = 100)): 64 (64%) | Adverse event: Flushing, subjects (%) ([3]; 0.75 mg SC (N = 100)): 17 (17%) | Adverse event: Headache, subjects (%) ([3]; 0.75 mg SC (N = 100)): 9 (9%) | Adverse event: Injection-site pain, subjects (%) ([3]; 0.75 mg SC (N = 100)): 6 (6%) | Adverse event: Injection-site pruritus, subjects (%) ([3]; 0.75 mg SC (N = 100)): 4 (4%) | Adverse event: Nausea, subjects (%) ([3]; 0.75 mg SC (N = 100)): 18 (18%) | Adverse event: Upper respiratory tract infection, subjects (%) ([3]; 0.75 mg SC (N = 100)): 8 (8%) | Patients discontinued based on adverse events ([3]; 1.25 mg SC): 4 | Patients discontinued on preset blood pressure change criterion ([3]; 1.25 mg SC): 9 | Adverse event leading to withdrawal: Flushing, subjects (%) ([3]; 1.25 mg SC (N = 99)): 1 (1%) | Adverse event leading to withdrawal: Hypertension, subjects (%) ([3]; 1.25 mg SC (N = 99)): 0 | Adverse event leading to withdrawal: Nausea, subjects (%) ([3]; 1.25 mg SC (N = 99)): 0 | Adverse event leading to withdrawal: Vomiting, subjects (%) ([3]; 1.25 mg SC (N = 99)): 1 (1%) | Adverse event: Any leading to withdrawal, subjects (%) ([3]; 1.25 mg SC (N = 99)): 4 (4%) | Adverse event: Any, subjects (%) ([3]; 1.25 mg SC (N = 99)): 61 (62%) | Adverse event: Flushing, subjects (%) ([3]; 1.25 mg SC (N = 99)): 14 (14%) | Adverse event: Headache, subjects (%) ([3]; 1.25 mg SC (N = 99)): 9 (9%) | Adverse event: Injection-site pain, subjects (%) ([3]; 1.25 mg SC (N = 99)): 6 (6%) | Adverse event: Injection-site pruritus, subjects (%) ([3]; 1.25 mg SC (N = 99)): 4 (4%) | Adverse event: Nausea, subjects (%) ([3]; 1.25 mg SC (N = 99)): 22 (22%) | Adverse event: Upper respiratory tract infection, subjects (%) ([3]; 1.25 mg SC (N = 99)): 5 (5%) | Patients discontinued based on adverse events ([3]; 1.75 mg SC): 8 | Patients discontinued on preset blood pressure change criterion ([3]; 1.75 mg SC): 7 | Adverse event leading to withdrawal: Flushing, subjects (%) ([3]; 1.75 mg SC (N = 98)): 1 (1%) | Adverse event leading to withdrawal: Hypertension, subjects (%) ([3]; 1.75 mg SC (N = 98)): 1 (1%) | Adverse event leading to withdrawal: Nausea, subjects (%) ([3]; 1.75 mg SC (N = 98)): 3 (3%) | Adverse event leading to withdrawal: Vomiting, subjects (%) ([3]; 1.75 mg SC (N = 98)): 3 (3%) | Adverse event: Any leading to withdrawal, subjects (%) ([3]; 1.75 mg SC (N = 98)): 8 (8%) | Adverse event: Any, subjects (%) ([3]; 1.75 mg SC (N = 98)): 67 (68%) | Adverse event: Flushing, subjects (%) ([3]; 1.75 mg SC (N = 98)): 17 (17%) | Adverse event: Headache, subjects (%) ([3]; 1.75 mg SC (N = 98)): 14 (14%) | Adverse event: Injection-site pain, subjects (%) ([3]; 1.75 mg SC (N = 98)): 7 (7%) | Adverse event: Injection-site pruritus, subjects (%) ([3]; 1.75 mg SC (N = 98)): 6 (6%) | Adverse event: Nausea, subjects (%) ([3]; 1.75 mg SC (N = 98)): 24 (24%) | Adverse event: Upper respiratory tract infection, subjects (%) ([3]; 1.75 mg SC (N = 98)): 4 (4%) | Tolerability during the trial ([3]; 0.75-1.75 mg SC): generally well tolerated | Serious adverse events related to treatment ([3]; Example 1 study): none were considered related; also recorded: no serious adverse events | Effect on appetitive sexual behavior (female rats): selective pharmacological effect on appetitive sexual behavior was observed | Dopamine release in the medial preoptic area (female rats; subcutaneous injections): increasing dopamine release | Immediate-early gene product Fos in limbic and hypothalamic structures (female rats; subcutaneous injections): inducing | Frequency of Satisfying Sexual Events (SSEs), mean at end of study ([4]; pooled 1.25 mg and 1.75 mg SC, from 1.6 at baseline, placebo 1.7 to 1.9): 2.4 | FSFI total score improvement, mean change from baseline to end of study ([4]; pooled 1.25 mg and 1.75 mg SC, placebo 1.88): 3.55 | FSDS-DAO total score improvement, mean change from baseline to end of study ([4]; pooled 1.25 mg and 1.75 mg SC, placebo −6.8): −11.1 | Increase in SSEs ([4]; pooled 1.25 mg and 1.75 mg SC, versus 12% with placebo): 50% | Efficacy in premenopausal women with FSDs ([4]; self-administered at home at 1.25 and 1.75 mg SC): effective in decreasing distress, increasing arousal and desire, and increasing the number of SSEs | Percentage of women with end-of-study FSFI and FSDS-DAO total score levels above 26.5 and 18 ([4]; versus placebo, exploratory analysis): higher percentage
